Test results taken from patent publication US12077503B2, “Substituted cyclic amides and their use as herbicides” (FMC CORPORATION, priority 2015, dated 2024).

Columns and labels:
Test in all cases: Test C preemergence
Assay type in all cases: in vivo
[1] = test system: barnyardgrass (Echinochloa crus-galli); details: for Plant response rating, Barnyardgrass: scale 0 to 100, 0 no effect, 100 complete control
Method in brief: (§1)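 Scores of 0 to 100 reflect visual comparison with control plants, where 0 means no effect and 100 complete control, made 13 to 15 d after treatment. Application was preemergence to seeds in loam-sand soil or postemergence to plants 2 to 18 cm tall in peat-based mix, using a surfactant-containing solvent formulation.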

[2] = test system: blackgrass (Alopecurus myosuroides); details: for Plant response rating, Blackgrass: scale 0 to 100, 0 no effect, 100 complete control
Method in brief: as §1

[3] = test system: oilseed rape (Brassica napus); details: for Plant response rating, Oilseed Rape: scale 0 to 100, 0 no effect, 100 complete control
Method in brief: as §1

[4] = test system: crabgrass, large (large crabgrass, Digitaria sanguinalis); details: for Plant response rating, Crabgrass, Large: scale 0 to 100, 0 no effect, 100 complete control
Method in brief: as §1

[5] = test system: wheat (winter wheat, Triticum aestivum); details: for Plant response rating, Wheat: scale 0 to 100, 0 no effect, 100 complete control
Method in brief: as §1

[6] = test system: lambsquarters (Chenopodium album); details: for Plant response rating, Lambsquarters: scale 0 to 100, 0 no effect, 100 complete control
Method in brief: as §1

[7] = test system: foxtail, giant (giant foxtail, Setaria faberii); details: for Plant response rating, Foxtail, Giant: scale 0 to 100, 0 no effect, 100 complete control
Method in brief: as §1

[8] = test system: waterhemp (common waterhemp, Amaranthus rudis); details: for Plant response rating, Waterhemp: scale 0 to 100, 0 no effect, 100 complete control
Method in brief: as §1

[9] = test system: Galium (catchweed bedstraw, Galium aparine); details: for Plant response rating, Galium: scale 0 to 100, 0 no effect, 100 complete control
Method in brief: as §1

[10] = test system: morningglory (Ipomoea coccinea); details: for Plant response rating, Morningglory: scale 0 to 100, 0 no effect, 100 complete control
Method in brief: as §1

corn (Zea mays) = details: for Plant response rating, Corn: scale 0 to 100, 0 no effect, 100 complete control
Method in brief: as §1

[11] = test system: johnsongrass (Sorghum halepense); details: for Plant response rating, Johnsongrass: scale 0 to 100, 0 no effect, 100 complete control
Method in brief: as §1

[12] = test system: velvetleaf (Abutilon theophrasti); details: for Plant response rating, Velvetleaf: scale 0 to 100, 0 no effect, 100 complete control
Method in brief: as §1

[13] = test system: ragweed (common ragweed, Ambrosia elatior); details: for Plant response rating, Ragweed: scale 0 to 100, 0 no effect, 100 complete control
Method in brief: as §1

soybean (Glycine max) = details: for Plant response rating, Soybean: scale 0 to 100, 0 no effect, 100 complete control
Method in brief: as §1

[14] = test system: nutsedge, yellow (yellow nutsedge, Cyperus esculentus); details: for Plant response rating, Nutsedge, Yellow: scale 0 to 100, 0 no effect, 100 complete control
Method in brief: as §1

[15] = test system: ryegrass, Italian (Italian ryegrass, Lolium multiflorum); details: for Plant response rating, Ryegrass, Italian: scale 0 to 100, 0 no effect, 100 complete control
Method in brief: as §1

[16] = 31 g ai/ha, 0 is no effect, 100 is complete control

SMILES: O=C1NCC(c2cccc(OC(F)(F)C(F)F)c2)C1C(=O)Nc1ccc(F)c(F)c1F (racemic) [Compound 698]
- Plant response rating (scale of 0 to 100), Barnyardgrass [1, 16]: 75
- Plant response rating, Barnyardgrass ([1]; 62 g ai/ha): 90
- Plant response rating, Barnyardgrass ([1]; 125 g ai/ha): 90
- Plant response rating, Barnyardgrass ([1]; 250 g ai/ha): 90
- Plant response rating (scale of 0 to 100), Blackgrass [2, 16]: 0
- Plant response rating, Blackgrass ([2]; 62 g ai/ha): 0
- Plant response rating, Blackgrass ([2]; 125 g ai/ha): 50
- Plant response rating, Blackgrass ([2]; 250 g ai/ha): 70
- Plant response rating (scale of 0 to 100), Oilseed Rape [3, 16]: 0
- Plant response rating, Oilseed Rape ([3]; 62 g ai/ha): 30
- Plant response rating, Oilseed Rape ([3]; 125 g ai/ha): 80
- Plant response rating, Oilseed Rape ([3]; 250 g ai/ha): 85
- Plant response rating (scale of 0 to 100), Crabgrass, Large [4, 16]: 90
- Plant response rating, Crabgrass, Large ([4]; 62 g ai/ha): 90
- Plant response rating, Crabgrass, Large ([4]; 125 g ai/ha): 95
- Plant response rating, Crabgrass, Large ([4]; 250 g ai/ha): 95
- Plant response rating (scale of 0 to 100), Wheat [5, 16]: 0
- Plant response rating, Wheat ([5]; 62 g ai/ha): 0
- Plant response rating, Wheat ([5]; 125 g ai/ha): 0
- Plant response rating, Wheat ([5]; 250 g ai/ha): 30
- Plant response rating (scale of 0 to 100), Lambsquarters [6, 16]: 10
- Plant response rating, Lambsquarters ([6]; 62 g ai/ha): 35
- Plant response rating, Lambsquarters ([6]; 125 g ai/ha): 70
- Plant response rating, Lambsquarters ([6]; 250 g ai/ha): 80
- Plant response rating (scale of 0 to 100), Foxtail, Giant [7, 16]: 85
- Plant response rating, Foxtail, Giant ([7]; 62 g ai/ha): 90
- Plant response rating, Foxtail, Giant ([7]; 125 g ai/ha): 85
- Plant response rating, Foxtail, Giant ([7]; 250 g ai/ha): 90
- Plant response rating (scale of 0 to 100), Waterhemp [8, 16]: 85
- Plant response rating, Waterhemp ([8]; 62 g ai/ha): 85
- Plant response rating, Waterhemp ([8]; 125 g ai/ha): 85
- Plant response rating, Waterhemp ([8]; 250 g ai/ha): 90
- Plant response rating (scale of 0 to 100), Galium [9, 16]: 100
- Plant response rating, Galium ([9]; 62 g ai/ha): 90
- Plant response rating, Galium ([9]; 125 g ai/ha): 100
- Plant response rating, Galium ([9]; 250 g ai/ha): 90
- Plant response rating (scale of 0 to 100), Morningglory [10, 16]: 0
- Plant response rating, Morningglory ([10]; 62 g ai/ha): 0
- Plant response rating, Morningglory ([10]; 125 g ai/ha): 20
- Plant response rating, Morningglory ([10]; 250 g ai/ha): 25
- Plant response rating (scale of 0 to 100), Corn (corn (Zea mays); [16]): 40
- Plant response rating, Corn (corn (Zea mays); 62 g ai/ha): 70
- Plant response rating, Corn (corn (Zea mays); 125 g ai/ha): 80
- Plant response rating, Corn (corn (Zea mays); 250 g ai/ha): 80
- Plant response rating (scale of 0 to 100), Johnsongrass [11, 16]: 75
- Plant response rating, Johnsongrass ([11]; 62 g ai/ha): 75
- Plant response rating, Johnsongrass ([11]; 125 g ai/ha): 80
- Plant response rating, Johnsongrass ([11]; 250 g ai/ha): 85
- Plant response rating (scale of 0 to 100), Velvetleaf [12, 16]: 25
- Plant response rating, Velvetleaf ([12]; 62 g ai/ha): 40
- Plant response rating, Velvetleaf ([12]; 125 g ai/ha): 50
- Plant response rating, Velvetleaf ([12]; 250 g ai/ha): 65
- Plant response rating (scale of 0 to 100), Ragweed [13, 16]: 70
- Plant response rating, Ragweed ([13]; 62 g ai/ha): 40
- Plant response rating, Ragweed ([13]; 125 g ai/ha): 40
- Plant response rating, Ragweed ([13]; 250 g ai/ha): 55
- Plant response rating (scale of 0 to 100), Soybean (soybean (Glycine max); [16]): 35
- Plant response rating, Soybean (soybean (Glycine max); 62 g ai/ha): 0
- Plant response rating, Soybean (soybean (Glycine max); 125 g ai/ha): 0
- Plant response rating, Soybean (soybean (Glycine max); 250 g ai/ha): 0
- Plant response rating (scale of 0 to 100), Nutsedge, Yellow [14, 16]: 0
- Plant response rating, Nutsedge, Yellow ([14]; 62 g ai/ha): 0
- Plant response rating, Nutsedge, Yellow ([14]; 125 g ai/ha): 0
- Plant response rating, Nutsedge, Yellow ([14]; 250 g ai/ha): 0
- Plant response rating (scale of 0 to 100), Ryegrass, Italian [15, 16]: 0
- Plant response rating, Ryegrass, Italian ([15]; 62 g ai/ha): 0
- Plant response rating, Ryegrass, Italian ([15]; 125 g ai/ha): 0
- Plant response rating, Ryegrass, Italian ([15]; 250 g ai/ha): 30
